The subject of assay [1] is Escherichia coli. Put plainly: Antibacterial activity against Escherichia coli; Inactive. The format is functional, organism-based.
Assay [2] is described as follows: Compound was tested for its inhibitory activity against DAla-DAla Ligase at 1 mM; No activity. On the set-up: species or system Enterococcus faecalis.
Assay [3] deals with Staphylococcus aureus. Nature of the assay: Antibacterial activity against Staphylococcus aureus; Inactive. Format: functional, organism-based.
Assay [4] can be described thus: Compound was tested for its inhibitory activity against DAla-DAla Ligase. On the set-up: species or system Enterococcus faecalis.

The structures appear in SMILES notation. pIC50: −log10 of the molar value. Activity calls are given as the source filed them. The rule behind the calls is not given here.

`C[C@@H](N)[C@@]1(O)CNC1=O`: the result in assay [1] and in assay [3] was inactive. Moreover, in assay [2], the IC50 entry is recorded as “Not Active”.
By pIC50 is commonly meant the IC50 on a negative log10 scale, so that one unit is a factor of ten. A lower pIC50 goes with a large IC50. As to `N[C@@H]1CONC1=O` [CYCLOSERINE], the pIC50 in assay [4] is 3.60.
Regarding `CC(N)P(=O)(O)O` (stereo not drawn), in assay [4], the pIC50 was 3.03. This pIC50 is 0.57 log units lower than that of the compound before.
As for `C[C@@H](N)[C@]1(O)CNC1=O`, the outcome in assay [1] and in assay [3] was inactive. In addition, in assay [2], the IC50 result is recorded as “Not Active”.

The record behind these values is ChEMBL document CHEMBL1124319, “Synthesis of an analogue of tabtoxinine as a potential inhibitor of D-alanine:D-alanine ligase (ADP forming)” (J Med Chem, 1989).
